Assay results from patent US8895717B2, “Delivery of siRNA by neutral lipid compositions” (The Board of Regents of the University of Texas System, priority 2005, dated 2014).
Counter-ions that a name gives are not always drawn.

Experiments:
HeyA8 tumor samples = assay: Mean vessel density (CD31) in HeyA8 tumor samples; assay type: in vivo, nude mice; details: for MVD counts: daily agonist treatment
Description: Paraffin sections were stained for CD31 (1:800 dilution, Pharmingen, San Jose, Calif.), MMP-2 (1:500 dilution, Chemicon, Temecula, Calif.), MMP-9 (1:200 dilution, Calbiochem, San Diego, Calif.), VEGF (1:500 dilution, Santa Cruz Biotechnology, Santa Cruz, Calif.) and bFGF (1:1,000 dilution, Sigma, St. Louis, Mo.) at 4° C. Samples were stained with a biotinylated goat anti-rabbit antibody for 30 min (prediluted), followed by strepavidin horseradish peroxidase for 30 min (1:300 dilution), and visualized in 3,3′-diaminobenzidine (DAB) for 5-10 min.
To quantify MVD, 10 random 0.159 mm^2 fields at 100× magnification were examined for each tumor, and the microvessels within those fields were counted. A single microvessel was defined as a discrete cluster of cells stained CD31(+), and the presence of a lumen was required for scoring as a microvessel.

VEGF mRNA = VEGF mRNA expression, real-time RT-PCR; assay type: cell-based, human; details: SKOV3ip1; forskolin 1 μM, db-cAMP 1 mM
Description: Total RNA was extracted (Trizol reagent; Invitrogen Co, Carlsbad, Calif.) and reverse transcribed using an oligo(dT) primer and M-MLV reverse transcriptase (Life Technologies, Inc., Rockville, Md.) in a final reaction volume of 20 μl (60 min at 42° C.). PCR amplifications are performed using the ABI Prism 7700 Sequence Detection System with TaqMan One-Step RT-PCR Master Mix Reagent kit (PE Applied Biosystems, Foster City, Calif.). Quantitative values are obtained from the Ct value, at which the increase in fluorescent signal associated with exponential growth of PCR products starts to be detected by the laser detector of the Sequence Detection System, using the analysis software according to the manufacturer's instructions (each sample is normalized on the basis of its I8S content). The VEGF primers were obtained from Applied Biosystems (Item number HS00173626-ml). βAR expression was examined with semi-quantitative RT-PCR using the following primers: βAR (forward, 5′-[…]-3′ (SEQ ID NO:13), reverse, 5′-[…]-3′) (SEQ ID NO:14); β2AR (forward, 5′-[…]-3′ (SEQ ID NO:15), reverse, 5′-[…]-3′) (SEQ ID NO:16).

FAK = FAK cleavage in response to docetaxel, Western blot; assay type: cell-based, human; details: in the presence of DEVD-fmk
Description: Cells were lysed in modified RIPA buffer (50 mM Tris, 150 mM NaCl, 1% triton, 0.5% deoxycholate plus 25 µg/ml leupeptin, 10 µg/ml aprotinin, 2 mM EDTA, and 1 mM sodium orthovanadate (Sigma Chemical Co, St. Louis, Mo.) as previously described (Sood et al., 2004; Sood et al., 2002). A sample was removed from culture dishes by cell scraping and centrifuged at 12,500 rpm for 30 min. The […] protein concentration of the supernatant was determined using a bicinchoninic acid protein assay reagent kit (Pierce, Rockford, Ill.), and whole cell lysates were analyzed by 7.5% SDS-PAGE. Samples were then transferred to nitrocellulose membrane by semi-dry transfer (BioRad Laboratories, Hercules, Calif.). Membranes were blocked with 5% nonfat milk, and incubated with 0.25 μg/mL anti-FAK antibody (Biosource, International Camarillo, Calif.) for 1 h at room temperature. Antibody was detected with 0.167 μg/mL HRP-conjugated anti-mouse secondary antibody (The Jackson Laboratory, Bar Harbor, Me.) and developed with an enhanced chemiluminescence detection kit (Pierce). Equal loading was confirmed by detection of β-actin (0.1 μg/ml, anti-β-actin antibody, Sigma Chemical). Densitometric analysis was performed using the Scion Imaging software (Scion Corporation, Frederick, Md.).
It has been reported that FAK may be cleaved by caspase-3 (Gervais et al., 1998; Sasaki et al., 2002; Carragher et al., 2001). Based on observations regarding modulation of caspase levels by docetaxel in ovarian cancer cells, FAK cleavage after treatment with docetaxel was examined and whether there are differences in extent of FAK cleavage between the taxane-sensitive and taxane-resistant cell lines. In SKOV3 cells, FAK was cleaved after 48 and 72 hours of exposure to docetaxel (FIG. 7A). The 71-kDa fragments increased after treatment with docetaxel, whereas the 125-kDa fragments decreased. […] To study the dependence of FAK cleavage on caspase-3, the effect of DEVDfmk (caspase-3 inhibitor) was examined.

SKOV3 cells = assay: TUNEL apoptosis assay, SKOV3; assay type: cell-based, human; details: SKOV3, docetaxel 72 hours without or with DEVD-fmk
Description: (§1) Terminal deoxynucleotidyl transferase-mediated nick end labeling-positive cells were detected using Dead End Fluorometric terminal deoxynucleotidyl transferase-mediated nick end labeling system (APO-DIRECT, BD Biosciences/PharMingen, San Diego, Calif.) according to the manufacturer's instructions. […] Cells were fixed with 4% paraformaldehyde solution for 25 minutes on ice. Intracellular DNA fragments were then labeled by exposing cells to fluorescein-12-dUTP, treated with propidium iodide and RNaseA solution, and analyzed by flow cytometry (EPICS XL, Beckman Coulter, Miami, Fla.). The percentages of apoptotic cells were averaged over three consecutive experiments.

HeyA8 cells [1] = assay: TUNEL apoptosis assay, HeyA8; assay type: cell-based, human; details: HeyA8, docetaxel 72 hours without or with DEVD-fmk
Description: as §1

HeyA8 cells [2] = assay: Chronic restraint stress, HeyA8 orthotopic tumor growth; assay type: in vivo, nude mice; details: propranolol Alzet pump 2 mg/kg/day
Excerpt: Mice habituated to vivarium conditions for 1 week before the initiation of stress procedures. A restraint-stress procedure was used based on previous studies (Sheridan et al., 1991), substituting a novel Mouse Restraint System (FIG. 15A) for conical centrifuge tubes. In this system, up to 10 mice are placed in individual slots, and each slot can be adjusted to restrain the animal for a desired length of time. In the present study, restraint stress began between 8 a.m. and 10 a.m., and lasted for 2-6 hours for up to 21 days. […] Immunohistochemistry and H&E staining procedures were carried out on formalin-fixed paraffin-embedded tumors. […] Pumps were inserted on the nape of the neck 7 days prior to initiation of restraint stress for 2 hours daily. Mice were anesthetized with inhaled methoxyflurane (Medical Developments Australia Pty. Ltd, Melbourne, Australia), and implanted with Alzet pumps containing PBS or S-propranolol hydrochloride (Sigma Co., St. Louis, Mo.) diluted in PBS at a dose of 2 mg/kg/day, which allows for chronic continuous receptor blockade, for 28 days (Aarons and Molinoff, 1982; Exton et al., 2002).

HeyA8 cells [3] = assay: Daily β-agonist treatment of mice bearing HeyA8 ovarian cancer cells; assay type: in vivo, nude mice; details: terbutaline 5 mg/kg, xamoterol 1 mg/kg, isoproterenol plus propranolol 2 mg/kg, daily
Excerpt: Mice habituated to vivarium conditions for 1 week before the initiation of stress procedures. A restraint-stress procedure was used based on previous studies (Sheridan et al., 1991), substituting a novel Mouse Restraint System (FIG. 15A) for conical centrifuge tubes. In this system, up to 10 mice are placed in individual slots, and each slot can be adjusted to restrain the animal for a desired length of time. In the present study, restraint stress began between 8 a.m. and 10 a.m., and lasted for 2-6 hours for up to 21 days. The ovarian cancer cell lines were harvested from subconfluent cultures by a brief exposure to 0.25% trypsin and 0.02% EDTA, resuspended in Hank's balanced salt solution (HBSS), and tested for >95% viability by trypan blue dye exclusion. The HeyA8 cells were injected i.p. into mice at a concentration of 2.5×10^5 cells while the other cell lines were injected at 1.0×10^6 cells per 0.2 ml HBSS, ten days after starting stress in all groups. Animals were necropsied 21 days after tumor injection, and tumors in the peritoneal cavity were excised, weighed, and documented for location. Immunohistochemistry and H&E staining procedures were carried out on formalin-fixed paraffin-embedded tumors.
Starting 4 days after tumor cell injection, mice bearing HeyA8 ovarian cancer cells (n=10 per group) were treated daily with either 1) PBS; 2) isoproterenol (non-specific β-agonist) 10 mg/kg; 3) terbutaline (β2-agonist) 5 mg/kg; 4) xamoterol (β1-agonist) 1 mg/kg; or 5) isoproterenol plus 2 mg/kg of the non-specific β-antagonist propranolol.

CC(C)(C)NCC(O)c1cc(O)cc(O)c1 (stereo not drawn) [terbutaline]
MVD counts (HeyA8 tumor samples): significantly higher MVD counts compared to controls

CCCCCCOC(=O)[C@]1(O)C[C@@H]2O[C@@]1(C)n1c3ccccc3c3c4c(c5c6ccccc6n2c5c31)C(=O)NC4 [KT5720]
effect on VEGF mRNA (VEGF mRNA): efficiently blocked the effects of norepinephrine and forskolin on VEGF mRNA expression

COC(=O)CC[C@H](NC(=O)[C@H](CC(=O)OC)NC(=O)OCc1ccccc1)C(=O)N[C@H](C(=O)N[C@@H](CC(=O)OC)C(=O)CF)C(C)C [DEVD-fmk]
docetaxel-induced FAK cleavage (FAK): docetaxel-induced FAK cleavage was blocked
proportion of apoptotic cells (SKOV3 cells): 7%
proportion of apoptotic cells (HeyA8 cells [1]): 6%

CCCC(=O)Nc1ncnc2c1ncn2[C@@H]1O[C@@H]2COP(=O)(O)O[C@H]2[C@H]1OC(=O)CCC [dibutyryl cAMP]
effect on VEGF mRNA (VEGF mRNA): also increased VEGF mRNA levels

CC(C)NC[C@H](O)COc1cccc2ccccc12 (racemic) [propranolol, S-propranolol hydrochloride]
effect on VEGF mRNA (VEGF mRNA): blocked
invasive disease among stressed animals (HeyA8 cells [2]): 0%
effect of stress on tumor weight and number of nodules (HeyA8 cells [2]; daily 2 hour stress): stress did not significantly increase tumor weight or the number of tumor nodules
tumor burden (HeyA8 cells [3]): blocked the isoproterenol-induced increase in tumor growth
MVD counts (HeyA8 tumor samples): blocked that increase as well
stress-induced increases in MVD counts (HeyA8 tumor samples; stressed animals): efficiently blocked stress-induced increases in MVD counts
